System: B16 cells
Experiment: Melanin content of murine B16 cells by absorbance at 405 nm, related to protein, relative to DMSO control
Type: cell-based
Details: for depigmenting activity compared with the positive control hydroquinone: FIG. 2, C9LA+ and C5LA+ given by way of indication
Protocol: The cells are seeded in a 10 cm Petri dish at a density of 7×10^5 per dish and are incubated for 96 hours, with a defined concentration of lichen-derived molecule, which has been purified and solubilized in DMSO. After treatment, the cells are recovered by treatment with trypsin and washed twice with PBS. The number of cells recovered is estimated by counting using a hemocytometer. One and the same fraction is used to determine the melanin content and the protein concentration. The melanin content is determined by the absorbance at 405 nm (VersaMax Microplate Reader, Molecular Devices, USA) of the cell solution after solubilization of the melanin with 1M sodium hydroxide, for 15 min at 80° C. The protein concentration is determined according to the protocol of the “DC Protein Assay” kit developed by Bio-Rad laboratories, USA. For each sample treated, the melanin content is related to the amount of protein and expressed as a percentage relative to the control situation (DMSO solution alone). Each measurement is carried out in triplicate and each experiment is carried out independently a minimum of 3 times (except for the C9LA+ and C5LA+ derivatives given by way of indication).
FIGS. 1 and 2 bring together the results. These figures show the melanin content of the B16 cells treated for 96 h in the presence of a given molecule (FIG. 2), or of a (+)-lichesterinic acid ((+)LA)/(+)-protolichesterinic acid ((+)PLA)/(+)-roccellaric acid ((+)RA) mixture in a 60/25/15 weight ratio (FIG. 1).
Along the x-axis are the molecules tested with their concentrations expressed in μM.
Along the y-axis, the melanin content is expressed as a percentage relative to the control (DMSO alone=concentration of 0.1%).

[1] = 96 h incubation, concentrations of 0.5 to 2 μM, relative to control, FIG. 2

## CCCCCCCCCCCCC[C@H]1OC(=O)C(C)=C1C(=O)O [(+)-lichesterinic acid]
96 h incubation
  depigmenting activity compared with the positive control hydroquinone: greater depigmenting activity

## CCCCC[C@H]1OC(=O)C(C)=C1C(=O)O [C5LA+]
96 h incubation
  depigmenting activity compared with the positive control hydroquinone: comparable depigmenting activity

## CCCCCCCCC[C@H]1OC(=O)C(C)=C1C(=O)O [C9LA+, (+)-3-methyl-5-nonylparaconic acid]
96 h incubation
  depigmenting activity compared with the positive control hydroquinone: greater depigmenting activity

## CCCCCCCCCCCCC[C@@H]1OC(=O)C(C)=C1C(=O)O [LA−, (−)-lichesterinic acid]
[1]
  stimulation of melanin production: +10% to +30%

## C=C1C(=O)O[C@H](CCCCCCCCCCCCC)[C@H]1C(=O)O [PLA+, (+)-protolichesterinic acid]
Same conditions, 0.25 μM, individually isolated product, results not given in figures
  decrease in the melanin level: about −20%

## Oc1ccc(O)cc1 [hydroquinone]
96 h incubation, under the same conditions, concentration not given, FIG. 2
  decrease in the melanin level (depigmenting positive control): −20%

## CCCCCCCCCCCCC[C@H]1OC(=O)[C@@H](C)[C@@H]1C(=O)O [roccellaric acid, (+)-roccellaric acid]
Same conditions, 1 μM, individually isolated product, results not given in figures
  decrease in the melanin level: not significant

## (+)-protolichesterinic acid [PLA+]
[1]
  decrease in the melanin level: 10% to 20%

— patent US9265706B2, “Lichesterinic acid and the derivatives of same as pigmentation inhibitors” (Centre National de la Recherche Scientifique—CNRS, priority 2012, dated 2016)
